Source: patent US20260345609A1, “METHODS FOR PROMOTING PERSISTENCE OF CELL THERAPY” (Legend Biotech Ireland Limited, priority 2022, published 2026)

Key:
[1] = system: CAR-γδT cells; experiment: Effect of MTX concentration on proliferation of CAR-γδT cells in vitro (AOPI counting); format: cell-based, human
Procedure: 50 mL of fresh peripheral blood of volunteers was extracted, mixed with lymphocyte separation medium, and then peripheral blood mononuclear cells (PBMC) were separated by density gradient centrifugation. The isolated lymphocytes were overnight cultured in RPMI 1640 medium, supplemented with L-glutamine (2 mM, Sigma-Aldrich), penicillin (100 IU/mL)/streptomycin (100 μg/mL) (Sigma-Aldrich, Missouri, USA), 10% serum (Gibco, Massachusetts, USA), zoledronic acid (5 μM, Actavis, New Jersey, USA), IL-2 (100 IU/mL; Aldesleukin, Novartis, Frimley, UK). The γδT cells selected above were transduced with lentiviral vector expressing an anti-CLL1 CAR and DHFR L22F/F31S at a multiplicity of infection (MOI) of 5. After 48 hours of transduction, IL-2 (100 IU/mL) was added every 2-3 days to expand T cells expressing the anti-CLL1 CAR (hereinafter referred to as CAR-γδT cells).
Cultured with the addition of methotrexate (MTX) at the concentrations of 0 μM, 0.01 μM, 0.05 μM, 0.1 μM, 1 μM, or 2 μM, the cell number of LUCAR-20SD cells at day0 day3 day6 day9, day 12, and the cell number of CAR-γδT cells at day0 day2 day5 day7 were counted by AOPI. Cell proliferation curves were plotted separately.

[2] = system: CAR-γδT cells; experiment: In vitro mixed lymphoid (MLR) model with CAR-γδT cells, UnT and U937 cells: graft CAR-γδT cells; format: cell-based, human; conditions: 0.05 μM and 0.5 μM MTX
Procedure: To evaluate the ability of γδ T cells to tolerate allogeneic T cell rejection, an in vitro mixed lymphoid (MLR) model was established.
Using the T cells from a random healthy donor (B donor), CAR-γδT cells were prepared following the method in Example 1, as the graft cells. Un-transduced T cells (UnT) from another random healthy donor (T cell donor A) were also prepared, as the host cells.
The density of CLL1 positive human lymphoma cells (U937) was adjusted to 1×10^6 cells/mL. U937 cells were treated with 20 μg/mL mitomycin at 37° C. for 3 h, washed three times with 10 mL DPBS, and suspended in the culture medium. 20×10^6 untransduced T cells (UnT, T cell donor A), 1×10^6 CAR-γδT cells (T cell donor B), and 5×10^6 treated human lymphoma cells U937 were mixed and cultured in the medium. The cell mixture was divided into 3 groups, and 0 μM, 0.05 μM MTX, or 0.5 μM MTX was added, respectively. […] CAR-γδT cells were stimulated repeatedly with U937 cells at day0, day4, day7 at an E/T ratio of 1:1 According to the formula: fold change of cell number (UnT)=[cell number counted by AOPI×(CD3-/TCR VY9+%)]/20, fold change of cell number (CAR-γδT)=[cell number counted by AOPI×(CD3+/TCR Vγ9+%)]/1, the cell proliferation curves of UnT and CAR-γδT cells were plotted.

[3] = system: host PBMC cells (HLA-A2+); experiment: Effect of combination of fludarabine, cyclophosphamide and MTX on host immune cells (HLA-A2+) in peripheral blood; format: in vivo, NCG mice; human host cells; conditions: day 13
From the text: pLVX-Puro vector purchased from Clontech was subjected to the digestion reaction of ClaI and EcoRI restriction enzymes. The CMV promoter was replaced with the human EF1α promoter (GenBank: J04617.1) to obtain the pLVX-hEF1α vector. The fusion gene sequence of SIV Nef_M116-P2A-DHFR L22F/F31S-IRES-CD8α SP-anti-BCMA antibody-CD8α Hinge-CD8αTM-4-1BB-ITAM010, hereinafter referred to as “LUCAR-BCMA” (SEQ ID NO: 6) was cloned into the expression plasmid pLVX-hEF1α to form the LUCAR-BCMA expression plasmid named as M1588. The anti-BCMA antibody contained herein has been disclosed in PCT/CN2020/136570. With reference to the virus vector production and primary T transduction in Example 1, LUCAR-BCMA cells were prepared.
Severely immunodeficient NCG mice were used for in vivo efficacy evaluation. The specific embodiment is as follows: at day-5.5 mice were intravenously inoculated with 20×10^6 PBMC cells (HLA-A2+) to construct host immune cells, and at day0 the mice were intravenously inoculated with 3×10^6 LUCAR-BCMA cells (HLA-A2−) as transplanted cells. The modeled mice were then treated with the following different combination of fludarabine, cyclophosphamide, and MTX to evaluate the inhibitory effect of the combination regimen on the host's immune system. “/” in Table 2 means no drug was administrated. The dose of fludarabine in each experimental group was 0.1623 mg/mice, the dose of cyclophosphamide was 1.623 mg/mice and the dose of MTX was 15.15 mg/kg (G3 and G4) or 75.45 mg/kg (G5 and G6). At day 13, the end point of the experiment, the peripheral blood white blood cells (WBC) of mice were measured. The peripheral blood cells of mice were resuspended in DPBS, and then 1 μL of FITC anti human CD45 (Biolegend, 304038) and 1 μL of PE anti human HLA-A2 (Biolegend, 343306) were added into the cell resuspension and incubated at 4° C. for 30 min. […] The proliferation of host PBMC cells in the peripheral blood of mice was evaluated, which reflected the effect of different combinations of drugs on host immunity in vivo.

`CN(Cc1cnc2nc(N)nc(N)c2n1)c1ccc(C(=O)N[C@@H](CCC(=O)O)C(=O)O)cc1` [MTX, methotrexate] was tested, and the “proliferation of CAR-γδT cells compared with 0 μM MTX” value ([1]; 0.01 μM to 0.1 μM MTX, day 7, p>0.05) was “not significantly different”, the “proliferation of CAR-γδT cells compared with 0 μM MTX” value ([1]; 1 μM MTX and 2 μM MTX, day 7, p<0.05, dose-dependent) was “significantly decreased” and the minimal effective concentration ([1]; Homo sapiens, 168 h, day 7, read-out: MTX concentration that affects the proliferation of CAR-γδT cells) was ≥ 1 µM. For the same molecule, the “protective effect on heterologous CAR-γδT cells” value [2] was “good protective effect on heterologous CAR-γδT cells”, the “inhibitory effect of MTX on the host immune cells, dose relation” value ([3]; 15.15 mg/kg (G3) vs 75.45 mg/kg (G5)) was “dose-dependent” and the “inhibitory effect on proliferation of host cells” value ([3]; FC regimen or MTX alone) was “the inhibitory effect was limited”. The “number of host cells in the peripheral blood compared with G1 blank group” value ([3]; G2: FC, G3: 15.15 mg/kg MTX, G5: 75.45 mg/kg MTX) was “lower than that of the G1 blank group”.
